Test system: Hep G2 hepatocellular carcinoma xenograft
Experiment: Hep G2 hepatocellular carcinoma xenograft model
Type: in vivo, mouse
Conditions: PEG-BCT-100 20 mg/kg IV twice a week, DFMO 2% w/v in drinking water
Experimental: In one example embodiment, the Hep G2 human liver cancer cells are maintained in vitro culture in RPMI1640 medium supplemented with 10% fetal bovine serum at 37° C. in an atmosphere of 5% CO2 in air. The tumour cells are routinely sub-cultured twice weekly. The cells in an exponential growth phase are harvested and counted for tumour inoculation.
Each mouse is inoculated subcutaneously at the right flank region with Hep G2 tumour cells (1×10^7) in 0.2 ml of PBS (1:1 Matrigel) for tumour development. The treatments start when the mean tumour volume reaches 124 mm^3. The date of tumour cell inoculation is denoted as day 0.
Four treatment groups of animals, with eight animals in each group, are tested. Control group (negative control) receives physiological saline, and the three treatment groups respectively receive 20 mg/kg of PEG-BCT-100 alone, 2% w/v DFMO in drinking water, and combination of 20 mg/kg of PEG-BCT-100 and 2% w/v DFMO. PEG-BCT-100 is administered intravenously, twice a week, until euthanization while DFMO is supplied in drinking water at 2% w/v.

SMILES: NCCC[C@](N)(C(=O)O)C(F)F [DFMO, α-difluoromethylornithine, reference compound]
- anti-tumour effect: significant anti-tumour effect

— US20180271960A1, “METHOD TO TREAT CANCER USING ARGININE DELPETOR AND ORNITHINE DECARBOXYLASE (ODC) INHIBITOR” (Bio-Cancer Treatment International Ltd., priority 2015, published 2018)
